Assay results taken from patent publication US8039465B2, “Cytoskeletal active compounds, composition and use” (priority 2005, dated 2011).

What was measured:
non-muscle actin = assay: Actin Polymerization Inhibition Assay (Actin Polymerization Biochem Kit, pyrene actin fluorescence); type: biochemical; conditions: inhibition of actin polymerization (pyrene-labeled actin fluorescence increase) at standard test concentration of 10 uM
Description: The quantative effects of the test compounds on the kinetics of actin polymerization were determined using a non-muscle actin polymerization kit, Actin Polymerization Biochem Kit, according to the instructions of the manufacturer (Cytoskeleton Inc; Denver, Colo.). This assay evaluates the fluorescence intensity of pyrene actin, which is greater for polymeric actin than for monomeric actin. The ability of the test compounds to inhibit actin assembly was determined by measuring their ability to inhibit this increase in the fluorescence intensity of the pyrene-labeled actin. Results were expressed as the percent inhibition measured at a standard test concentration of 10 uM.

NIH/3T3 cells = assay: NIH/3T3 Cell Morphology Assay (phalloidin staining, degree of actin disruption); type: cell-based; conditions: 30 minutes at 37° C., 10 nM to 100 uM tested, TRITC-phalloidin imaging
Description: NIH/3T3 cells were grown in DMEM-H containing glutamine and 10% Colorado Calf Serum. Cells were passaged regularly prior to reaching confluence. Eighteen to 24 hours prior to experimentation, the cells were plated onto Poly-L-Lysine-coated glass coverslips. On the day of experimentation, the cell culture medium was removed and was replaced with medium containing from 10 nM to 100 uM of the test compound, and the cells were incubated for 30 minutes at 37° C. The culture medium was then removed and the cells were washed with warmed PBS and fixed for 10 minutes with warmed 4% paraformaldehyde. The cells were permeabilized with 0.5% Triton-X, stained with TRITC-conjugated phalloidin and imaged using a Nikon Eclipse E600 epifluorescent microscope to determine the degree of actin disruption. Results were expressed as the concentration at which complete disruption of the actin cytoskeleton was observed.

C=CCCC[C@@H]1C[C@@H](OC(=O)/C=C(/C)CCC=C)C[C@](O)([C@@H]2CSC(=O)N2)O1 [Compound 1, (Z)-((2R,4R,6R)-2-Hydroxy-2-((R)-2-oxothiazolidin-4-yl)-6-(pent-4-enyl)-tetrahydro-2H-pyran-4-yl) 3-Methylhepta-2,6-dienoate]
Percent inhibition at 10 uM (non-muscle actin): 52.3%

C=CCCC[C@@H]1C[C@@H](OC(=O)c2ccc(OC)cc2)C[C@](O)([C@@H]2CSC(=O)N2)O1 [Compound 4a, (2R,4R,6R)-2-Hydroxy-2-((R)-2-oxothiazolidin-4-yl)-6-(pent-4-enyl)-tetrahydro-2H-pyran-4-yl 4-Methoxybenzoate]
Percent inhibition at 10 uM (non-muscle actin): 42.2%

O=C1CCCCC/C=C/CCC[C@@H]2C[C@H](C[C@](O)([C@@H]3CSC(=O)N3)O2)O1 [Compound 10c, (R)-4-((1R,14R,16R,E)-16-Hydroxy-3-oxo-2,15-dioxa-bicyclo[12.3.1]octadec-9-en-16-yl)thiazolidin-2-one]
Percent inhibition at 10 uM (non-muscle actin): 21.7%

C/C1=C/C(=O)O[C@@H]2C[C@@H](CCC/C=C/CC1)O[C@@](O)([C@@H]1CSC(=O)N1)C2 [Compound 8a, (R)-4-((1R,4Z,8E,13R,15R)-15-Hydroxy-5-methyl-3-oxo-2,14-dioxa-bicyclo[11.3.1]heptadeca-4,8-dien-15-yl)thiazolidin-2-one]
Concentration giving complete actin disruption (NIH/3T3 cells): 15 µM
Percent inhibition at 10 uM (non-muscle actin): 67.2%

O=C1CCCC/C=C\CCC[C@@H]2C[C@H](C[C@](O)([C@@H]3CSC(=O)N3)O2)O1 [Compound 10a, (R)-4-((1R,13R,15R,Z)-15-Hydroxy-3-oxo-2,14-dioxa-bicyclo[11.3.1]heptadec-8-en-15-yl)thiazolidin-2-one]
Percent inhibition at 10 uM (non-muscle actin): 14.0%

C=CCCC[C@@H]1C[C@@H](NC(=O)/C=C(/C)CCC=C)C[C@](O)([C@@H]2CSC(=O)N2)O1 [Compound 1a, (Z)-N-((2R,4R,6R)-2-Hydroxy-2-((R)-2-oxothiazolidin-4-yl)-6-(pent-4-enyl)-tetrahydro-2H-pyran-4-yl)-3-methylhepta-2,6-dienamide]
Percent inhibition at 10 uM (non-muscle actin): 32.4%

C=CCCC[C@@H]1C[C@@H](OC(=O)c2ccccc2)C[C@](O)([C@@H]2CSC(=O)N2)O1 [Compound 4, (2R,4R,6R)-2-Hydroxy-2-((R)-2-oxothiazolidin-4-yl)-6-(pent-4-enyl)-tetrahydro-2H-pyran-4-yl Benzoate]
Percent inhibition at 10 uM (non-muscle actin): 52.0%

C/C1=C/C(=O)O[C@@H]2C[C@@H](CC[C@H](C)/C=C/CC1)O[C@@](O)([C@@H]1CSC(=O)N1)C2 [Compound 8b, (R)-4-((1R,4Z,8E,10S,13R,15R)-15-Hydroxy-5,10-dimethyl-3-oxo-2,14-dioxa-bicyclo[11.3.1]heptadeca-4,8-dien-15-yl)thiazolidin-2-one]
Concentration giving complete actin disruption (NIH/3T3 cells): 25 µM
Percent inhibition at 10 uM (non-muscle actin): 61.7%

C=CCCC[C@@H]1C[C@@H](OC(=O)c2ccc(S(C)(=O)=O)cc2)C[C@](O)([C@@H]2CSC(=O)N2)O1 [Compound 4b, (2R,4R,6R)-2-Hydroxy-2-((R)-2-oxothiazolidin-4-yl)-6-(pent-4-enyl)-tetrahydro-2H-pyran-4-yl 4-(Methylsulfonyl)benzoate]
Percent inhibition at 10 uM (non-muscle actin): 45.6%

C/C1=C/C(=O)O[C@@H]2C[C@@H](CCCCCCC1)O[C@@](O)([C@@H]1CSC(=O)N1)C2 [Compound 10, (R)-4-((1R,13R,15R,Z)-15-Hydroxy-5-methyl-3-oxo-2,14-dioxa-bicyclo[11.3.1]heptadec-4-en-15-yl)thiazolidin-2-one]
Percent inhibition at 10 uM (non-muscle actin): 44.1%

C/C1=C/C(=O)N[C@@H]2C[C@@H](CCC/C=C\CC1)O[C@@](O)([C@@H]1CSC(=O)N1)C2 [Compound 8c, (1R,4Z,8Z,13R,15R)-15-Hydroxy-5-methyl-15-((R)-2-oxothiazolidin-4-yl)-14-oxa-2-aza-bicyclo[11.3.1]heptadeca-4,8-dien-3-one]
Percent inhibition at 10 uM (non-muscle actin): 44.9%

O=C1CCCCCCCCC[C@@H]2C[C@H](C[C@](O)([C@@H]3CSC(=O)N3)O2)O1 [Compound 10b, (R)-4-((1R,13R,15R)-15-Hydroxy-3-oxo-2,14-dioxa-bicyclo[11.3.1]heptadecan-15-yl)thiazolidin-2-one]
Percent inhibition at 10 uM (non-muscle actin): 21.8%

O=C1CCCCCCCCCC[C@@H]2C[C@H](C[C@](O)([C@@H]3CSC(=O)N3)O2)O1 [Compound 10d, (R)-4-((1R,14R,16R)-16-Hydroxy-3-oxo-2,15-dioxa-bicyclo[12.3.1]octadecan-16-yl)thiazolidin-2-one]
Percent inhibition at 10 uM (non-muscle actin): 10.4%

C/C1=C/C(=O)O[C@@H]2C[C@@H](CCC/C=C\CC1)O[C@@](O)([C@@H]1CSC(=O)N1)C2 [Compound 8, (R)-4-((1R,4Z,8Z,13R,15R)-15-Hydroxy-5-methyl-3-oxo-2,14-dioxa-bicyclo[11.3.1]heptadeca-4,8-dien-15-yl)thiazolidin-2-one]
Concentration giving complete actin disruption (NIH/3T3 cells): 5 µM
Percent inhibition at 10 uM (non-muscle actin): 69.9%
